Reference: patent publication US5916774A, “D-aminoacylase” (Daicel Chemical Industries, Ltd., priority 1997, dated 1999)
Where two headings read alike, the source gives them in different places.

Experiments:
[1] = tested on: D-aminoacylase derived from Amycolatopsis orientalis IFO 12806; assay: Influences of various metallic salts and reagents on D-aminoacylase activity; format: biochemical
Experimental: (§1) The enzyme activity was assayed according to TNBS method [Tokuyama, S., Hatano, K. and Takahashi, T., Biosci. Biotech. Biochem. 58, pp24 (1994)]. That is, a sample solution containing amino acid was added to 0.5 ml of the solution (C) (0.1M Na2 B4 O7), and brought up to a volume of 1.0 ml. To this mixture was added […] of 0.11M TNBS solution, and the resulting mixture was quickly mixed. Five min thereafter, absorption at 420 nm was measured.
In Table 5, the term "PCMB" means p-chloromercuribenzoic acid.

[2] = tested on: Amycolatopsis orientalis IFO 12806; assay: Induction of D-aminoacylase production by inducers in culture; format: cell-based; conditions: for Specific activity / Total activity / Activity: crude enzyme solution of cells cultured with 0.1% inducer in ISP-2 medium, 30° C., 72 h; for Activity: 20 mM N-acetyl-D-methionine, pH 7.5, 10 min
Experimental: This microbial strain was cultured in ISP-2 liquid medium as used in Example 1 supplemented with or without N-acetyl-DL-methionine or DL-valine (Kanto Kagaku) (0.1% each) as the enzyme inducer with shaking at 160 rpm at 30° C. for 72 h.
After the incubation, the culture was centrifuged at 8000 rpm (7000×g) for 20 min with a Hitachi Koki refrigerated centrifuge to collect microbial cells. The cells were washed with 50 mM Tris-HCl buffer (pH 7.5) and then centrifuged again with the same centrifuge to harvest the cells to be used in the following processes. The cells were stored at -20° C.
The stored cells were suspended in 20 ml of 50 mM Tris-HCl (pH 7.5), ultrasonicated at 190 W for 10 min, and centrifuged with a Hitachi Koki refrigerated centrifuge at 14,000 rpm (20,000×g) for 20 min. The supernatant thus obtained was used as the crude enzyme solution.
The enzymatic reaction was performed in a total volume of 1.0 ml of a reaction system containing 20 mM N-acetyl-D-methionine, 50 mM Tris-HCl buffer (pH 7.5), 1 mM CoCl2, and 100 μl of the enzyme solution at 30° C. for 10 min. The reaction was terminated by adding a TCA reaction terminating solution.

[3] = tested on: D-aminoacylase derived from Amycolatopsis orientalis IFO 12806; assay: Substrate specificity of D-aminoacylase; format: biochemical; conditions: 20 mM substrate, 3 h; for Action of the enzyme on the substrate: pH 7.5, 30° C.; for Specific activity (%): N-acetyl-D-methionine taken as 100%, 50 mM Tris-HCl pH 7.5, 30° C.
Experimental: The enzymatic reaction was carried out in a total volume of 1.0 ml of a reaction system containing 20 mM N-acetyl-D-methionine (Sigma), 50 mM Tris-HCl buffer (pH 7.5), 1 mM CoCl2, and 100 μl of the enzyme solution at 30° C. for 60 min. The reaction was terminated by adding 0.5 ml of a TCA reaction terminating solution according to Tsai et al. (containing 0.11M trichloroacetic acid, 0.22M sodium acetate, and 0.33M acetic acid).
as §1
Substrate specificity of this enzyme was compared to, taking substrate specificity for N-acetyl-D-methionine as 100%, N-acetyl-D-valine, N-acetyl-D-phenylalanine, N-acetyl-D-leucine, N-acetyl-D-tryptophan, N-acetyl-D-asparagine, N-acetyl-L-methionine, N-acetyl-D-leucine, and N-acetyl-L-valine. The enzyme activity was assayed in 50 mM Tris-HCl buffer (pH 7.5) containing 100 μl of the enzyme solution and 20 mM of each substrate (total volume of 1.0 ml) at 30° C. for 3 h.

[4] = metallic salt 1 mM, no addition = 100
[5] = metallic salt 1 mM, pH 7.5, 30° C., 60 min, no addition 0.25
[6] = metallic salt 10 mM, no addition = 100
[7] = metallic salt 10 mM, pH 7.5, 30° C., 60 min, no addition 0.25
[8] = reagent 1 mM, no addition = 100
[9] = reagent 1 mM, pH 7.5, 30° C., 60 min, no addition 0.22
[10] = reagent 10 mM, no addition = 100
[11] = reagent 10 mM, pH 7.5, 30° C., 60 min, no addition 0.22

Compound	Specific activity (%), concentration 1 mM [1, 4] [%]	Methionine produced, concentration 1 mM [1, 5] [mM]	Specific activity (%), concentration 10 mM [1, 6] [%]	Methionine produced, concentration 10 mM [1, 7] [mM]	Action of the enzyme on the substrate [3]	Specific activity (%) [3] [%]	also measured
[Cl][Fe][Cl] [F^e2+ (FeCl2), FeCl2]	52	0.13	0	0	–	–	–
[Ca+2].[Cl-].[Cl-] [Ca^2+ (CaCl2), CaCl2]	180	0.45	208	0.52	–	–	Effect on enzyme activity ([1]; 1 mM): significantly promoted; Effect on enzyme activity ([1]; 10 mM): did not inhibit
CC(C)C(N)C(=O)O (racemic) [DL-valine]	–	–	–	–	–	–	Induction of D-aminoacylase ([2]; DL-valine compared with N-acetyl-DL-methionine as inducer): induced more strongly; Specific activity [2]: 144.0 mU/mg; Total activity [2]: 36.0 U; Activity [2]: 3.9 U/ml
CSCCC(NC(C)=O)C(=O)O (racemic) [N-acetyl-DL-methionine]	–	–	–	–	–	–	Specific activity [2]: 36.0 mU/mg; Total activity [2]: 5.1 U; Activity [2]: 1.6 U/ml
CC(=O)N[C@H](CC(N)=O)C(=O)O [N-acetyl-D-asparagine]	–	–	–	–	acted somewhat	19	–
[Cl-].[Cl-].[Zn+2] [Zn^2+ (ZnCl2), ZnCl2]	0	0	0	0	–	–	–
[Cl-].[Cl-].[Mg+2] [Mg^2+ (MgCl2), MgCl2]	128	0.32	92	0.32	–	–	–
[Cl-].[Na+] [Na^+ (NaCl), NaCl]	–	–	–	–	–	–	Specific activity (%), concentration 1 mM [1]: 84%; Specific activity (%), concentration 10 mM [1]: 152%; Methionine produced, concentration 1 mM ([1]; pH 7.5): 0.21 mM; Methionine produced, concentration 10 mM ([1]; pH 7.5): 0.36 mM
[Cl-].[K+] [K^+ (KCl), KCl]	52	0.13	84	0.21	–	–	–
[Ba+2].[Cl-].[Cl-] [Ba^2+ (BaCl2), BaCl2]	–	0.19	176	0.44	–	–	–
CC(=O)N[C@H](C)C(=O)O [N-acetyl-D-alanine]	–	–	–	–	acted somewhat	16	–
CC(=O)N[C@@H](CC(C)C)C(=O)O [N-acetyl-L-leucine]	–	–	–	–	did not act	0	–
CC(=O)N[C@H](Cc1ccccc1)C(=O)O [N-acetyl-D-phenylalanine]	–	–	–	–	acted somewhat	36	–
O=C(O)c1cc[c]([Hg][Cl])cc1 [PCMB, p-chloromercuribenzoic acid, reference compound]	–	–	–	–	–	–	Effect on enzyme activity ([1]; concentration not given): inhibited; Specific activity (%), concentration 1 mM [1, 8]: 0%; Methionine produced, concentration 1 mM [1, 9]: 0 mM; Specific activity (%), concentration 10 mM [1, 10]: 0%; Methionine produced, concentration 10 mM [1, 11]: 0 mM
CSCC[C@H](NC(C)=O)C(=O)O [N-acetyl-L-methionine]	–	–	–	–	did not act	0	–
CC(=O)N[C@H](C(=O)O)C(C)C [N-acetyl-L-valine]	–	–	–	–	did not act	0	–
[Cl][Cu][Cl] [Cu^2+ (CuCl2), CuCl2]	0	0	0	0	–	–	Effect on enzyme activity ([1]; concentration not given): inhibited
O=C(O)CN(CCN(CC(=O)O)CC(=O)O)CC(=O)O [EDTA.2Na, reference compound]	–	–	–	–	–	–	Effect on enzyme activity [1]: inhibited; Specific activity (%), concentration 1 mM [1]: 0%; Specific activity (%), concentration 10 mM [1]: 0%; Methionine produced, concentration 1 mM ([1]; pH 7.5): 0 mM; Methionine produced, concentration 10 mM ([1]; pH 7.5): 0 mM
CC(=O)N[C@H](CC(C)C)C(=O)O [N-acetyl-D-leucine]	–	–	–	–	acted well	78	–
[Cl][Hg][Cl] [Hg^2+ (HgCl2), HgCl2]	0	0	0	0	–	–	Effect on enzyme activity ([1]; concentration not given): inhibited
CCN1C(=O)C=CC1=O [N-ethyl-maleimide, reference compound]	–	–	–	–	–	–	Specific activity (%), concentration 1 mM [1, 8]: 45%; Methionine produced, concentration 1 mM [1, 9]: 0.1 mM; Specific activity (%), concentration 10 mM [1, 10]: 0%; Methionine produced, concentration 10 mM [1, 11]: 0 mM
OC(CS)C(O)CS (stereo not drawn) [dothiothreito, reference compound]	–	–	–	–	–	–	Specific activity (%), concentration 1 mM [1, 8]: 77%; Methionine produced, concentration 1 mM [1, 9]: 0.17 mM; Specific activity (%), concentration 10 mM [1, 10]: 68%; Methionine produced, concentration 10 mM [1, 11]: 0.15 mM
CC(=O)N[C@@H](C(=O)O)C(C)C [N-acetyl-D-valine]	–	–	–	–	–	33	–
CSCC[C@@H](NC(C)=O)C(=O)O [N-acetyl-D-methionine]	–	–	–	–	acted well	100	–
[Cl][Mn][Cl] [Mn^2+ (MnCl2), MnCl2]	96	0.24	0	0	–	–	–
CC(=O)N[C@H](Cc1c[nH]c2ccccc12)C(=O)O [N-acetyl-D-tryptophan]	–	–	–	–	acted somewhat	54	–
O=C(O)CI [iodoactate, iodoacetate, reference compound]	–	–	–	–	–	–	Effect on enzyme activity [1]: inhibited; Specific activity (%), concentration 1 mM [1]: 64%; Specific activity (%), concentration 10 mM [1]: 50%; Methionine produced, concentration 1 mM ([1]; pH 7.5): 0.14 mM; Methionine produced, concentration 10 mM ([1]; pH 7.5): 0.11 mM
[Cl-].[Cl-].[Co+2] [Co^2+ (CoCl2), CoCl2]	208	0.52	108	0.27	–	–	Effect on enzyme activity ([1]; 1 mM): significantly promoted; Effect on enzyme activity ([1]; 10 mM): did not do so
[Cl][Ni][Cl] [Ni^2+ (NiCl2), NiCl2]	48	0.12	68	0.17	–	–	–
